Source: ChEMBL document CHEMBL5518189, “Design, synthesis and biological evaluation of 1,2,3-triazole benzothiazole derivatives as tubulin polymerization inhibitors with potent anti-esophageal cancer activities” (Eur J Med Chem, 2024)
Calls of active or inactive are those of the source. The rule behind the calls is not given here.

Key:
KYSE-30 [1] = assay: Induction of cell cycle arrest in human KYSE-30 cells assessed as downregulation of CDC25C level at 40 to 60 nM measured after 48 hrs by Western blot analysis; format: functional, cell-based; conditions: dose 40-60 nM
ECa-109 cell line [2] = assay: Induction of apoptosis in human EC109 cells assessed as effect on bax level at 40 to 60 nM by flow cytometry analysis; format: functional, cell-based; conditions: dose 40-60 nM
ECa-109 cell line [3] = assay: Induction of cell cycle arrest in human EC109 cells assessed as downregulation of CDC25C level at 40 to 60 nM measured after 48 hrs by Western blot analysis; format: functional, cell-based; conditions: dose 40-60 nM
HCT-116 = assay: Antiproliferative activity against human HCT-116 cells assessed as inhibition of cell growth measured after 48 hrs by CCK8 method; format: functional, cell-based; conditions: HCT-116, 48 h
KYSE-30 [4] = assay: Inhibition of colony formation in human KYSE-30 cells at 20 to 40 nM incubated for 7 days by crystal violet staining based analysis; format: functional, cell-based; conditions: dose 20-40 nM, time 7.0 day
ECa-109 cell line [5] = assay: Induction of cell cycle arrest in human EC109 cells assessed as downregulation of Wee1 phosphorylation level at 40 to 60 nM measured after 48 hrs by Western blot analysis; format: functional, cell-based; conditions: dose 40-60 nM
Tubulin (Homo sapiens) [6] = target: T1, Tubulin (Homo sapiens) (UniProt P68371+Q9H4B7+P0DPH7+P68366+Q13509+Q71U36+P04350+Q3ZCM7+P07437+P68363+Q9BQE3+Q6PEY2+Q13885+Q9BVA1+Q9BUF5); assay: Inhibition of tubulin polymerization in human EC109 cells assessed as appearance of multinucleation at 20 to 40 nM incubated for 6 hrs by immunofluorescence staining based fluorescence microscopic analysis; format: cell-based; conditions: dose 20-40 nM
ECa-109 [7] = assay: Downregulation of MST phosphorylation level in human EC109 cells at 40 to 60 nM measured after 48 hrs; format: functional, cell-based; conditions: dose 40-60 nM
KYSE-30 [8] = assay: Induction of apoptosis in human KYSE-30 cells assessed as increase in cleaved caspase 3 level at 40 to 100 nM measured after 48 hrs by Western blot analysis; format: functional, cell-based; conditions: dose 40-100 nM
ECa-109 cell line [9] = assay: Induction of cell cycle arrest in human EC109 cells assessed as accumulation of cells at G2/M phase at 0 to 40 nM measured after 48 hrs by propidium iodide staining based flow cytometry analysis (reference value: 14.57%); format: functional; conditions: dose 0-40 nM
Tubulin (Homo sapiens) [10] = target: T1, Tubulin (Homo sapiens); assay: Inhibition of tubulin polymerization (unknown origin) at 0.3 to 3 uM measured upto 4500 secs by fluorescence based analysis; format: protein-complex assay; conditions: dose 0.3-3 µM, time <= 4500.0 sec
Tubulin = assay: Inhibition of tubulin polymerization (unknown origin) measured upto 4500 secs by fluorescence based analysis; format: protein-complex assay, Homo sapiens
ECa-109 cell line [11] = assay: Induction of cell cycle arrest in human EC109 cells assessed as effect on cyclinB1 level at 40 to 60 nM measured after 48 hrs by Western blot analysis; format: functional, cell-based; conditions: dose 40-60 nM
ECa-109 cell line [12] = assay: Induction of apoptosis in human EC109 cells assessed as downregulation of bcl-2 level at 40 to 60 nM by flow cytometry analysis; format: functional, cell-based; conditions: dose 40-60 nM
ECa-109 cell line [13] = assay: Induction of cell cycle arrest in human EC109 cells assessed as downregulation of CDK1 level at 40 to 60 nM measured after 48 hrs by Western blot analysis; format: functional, cell-based; conditions: dose 40-60 nM
ECa-109 cell line [14] = assay: Induction of apoptosis in human EC109 cells assessed as effect on Mcl-1 level at 40 to 60 nM by flow cytometry analysis; format: functional, cell-based; conditions: dose 40-60 nM
ECa-109 cell line [15] = assay: Induction of apoptosis in human EC109 cells assessed as effect on bak level at 40 to 60 nM by flow cytometry analysis; format: functional, cell-based; conditions: dose 40-60 nM
KYSE-30 [16] = assay: Antiproliferative activity against human KYSE-30 cells assessed as reduction in cell viability by CCK-8 method; format: functional, cell-based; conditions: time 12-48 hrs, TDE = time-dependent effect
KYSE-30 [17] = assay: Induction of apoptosis in human KYSE-30 cells assessed as downregulation of XIAP level at 40 to 60 nM by flow cytometry analysis; format: functional, cell-based; conditions: dose 40-60 nM
ECa-109 cell line [18] = assay: Induction of cell cycle arrest in human EC109 cells assessed as upregulation of histone H3 phosphorylation level at 40 to 60 nM measured after 48 hrs by Western blot analysis; format: functional, cell-based; conditions: dose 40-60 nM
KYSE-30 [19] = assay: Induction of apoptosis in human KYSE-30 cells assessed as effect on bak level at 40 to 60 nM by flow cytometry analysis; format: functional, cell-based; conditions: dose 40-60 nM
ECa-109 cell line [20] = assay: Antiproliferative activity against human EC109 cells assessed as reduction in cell viability measured after 48 hrs by CCK-8 method; format: functional, cell-based; conditions: dose 10-70 nM
ECa-109 cell line [21] = assay: Induction of apoptosis in human EC109 cells assessed as increase in cleaved caspase 3 level at 40 to 100 nM measured after 48 hrs by Western blot analysis; format: functional, cell-based; conditions: dose 40-100 nM
ECa-109 cell line [22] = assay: Induction of apoptosis in human EC109 cells assessed as effect on Bcl-xl level at 40 to 60 nM by flow cytometry analysis; format: functional, cell-based; conditions: dose 40-60 nM
ECa-109 [23] = assay: Downregulation of YAP level in human EC109 cells incubated for 48 hrs; format: functional, cell-based; conditions: dose 40-80 nM
KYSE-30 [24] = assay: Induction of apoptosis in human KYSE-30 cells assessed as effect on Mcl-1 level at 40 to 60 nM by flow cytometry analysis; format: functional, cell-based; conditions: dose 40-60 nM
ECa-109 cell line [25] = assay: Induction of apoptosis in human EC109 cells assessed as downregulation of XIAP level at 40 to 60 nM by flow cytometry analysis; format: functional, cell-based; conditions: dose 40-60 nM
ECa-109 cell line [26] = assay: Induction of apoptosis in human EC109 cells measured after 48 hrs by annexin V-FITC and PI staining based flow cytometry analysis; format: functional, cell-based; conditions: dose 20-40 nM
ECa-109 cell line [27] = assay: Antiproliferative activity against human EC109 cells assessed as reduction in cell viability at 70 nM measured after 48 hrs by CCK-8 method relative to control; format: functional
Tubulin (Homo sapiens) [28] = target: T1, Tubulin (Homo sapiens); assay: Inhibition of tubulin polymerization in human KYSE-30 cells assessed as appearance of multinucleation at 20 to 40 nM incubated for 6 hrs by immunofluorescence staining based fluorescence microscopic analysis; format: cell-based; conditions: dose 20-40 nM
Cell membrane [29] = assay: Induction of mitochondrial membrane depolarization in human EC109 cells assessed as increase in caspase 9 activity at 40 to 60 nM incubated for 24 hrs by flow cytometry analysis; format: cell membranes; conditions: dose 40-60 nM
KYSE-30 [30] = assay: Induction of cell cycle arrest in human KYSE-30 cells assessed as downregulation of Wee1 phosphorylation level at 40 to 60 nM measured after 48 hrs by Western blot analysis; format: functional, cell-based; conditions: dose 40-60 nM
ECa-109 cell line [31] = assay: Antiproliferative activity against human EC109 cells assessed as reduction in cell viability by CCK-8 method; format: functional, cell-based; conditions: time 12-48 hrs, TDE = time-dependent effect
ECa-109 cell line [32] = assay: Induction of apoptosis in human EC109 cells assessed as increase in cleaved PARP level at 40 to 100 nM measured after 48 hrs by Western blot analysis; format: functional, cell-based; conditions: dose 40-100 nM
Cell membrane [33] = assay: Induction of mitochondrial membrane depolarization in human KYSE-30 cells assessed as increase in caspase 9 activity at 40 to 60 nM incubated for 24 hrs by flow cytometry analysis; format: cell membranes; conditions: dose 40-60 nM
ECa-109 cell line [34] = assay: Induction of apoptosis in human EC109 cells assessed as increase in Noxa expression level at 40 to 60 nM by flow cytometry analysis; format: functional, cell-based; conditions: dose 40-60 nM
KYSE-30 [35] = assay: Induction of apoptosis in human KYSE-30 cells assessed as increase in caspase 3 activity at 40 to 100 nM measured after 48 hrs by Western blot analysis; format: functional, cell-based; conditions: dose 40-100 nM
ECa-109 cell line [36] = assay: Induction of apoptosis in human EC109 cells assessed as decrease in pro-caspase 3 level at 40 to 100 nM measured after 48 hrs by Western blot analysis; format: functional, cell-based; conditions: dose 40-100 nM

## COc1ccc(CN(C(=O)Cn2cc(CSc3nc4ccccc4s3)nn2)c2cc(OC)c(OC)c(OC)c2)cc1O
KYSE-30 [1]
  Activity: Active
ECa-109 cell line [2]
  Activity: inactive
ECa-109 cell line [3]
  Activity: Active
HCT-116
  IC50: 62 nM
KYSE-30 [4]
  inhibition: Active
ECa-109 cell line [5]
  Activity: Active
Tubulin (Homo sapiens) [6]
  inhibition: Active
ECa-109 [7]
  Activity: Active
KYSE-30 [8]
  Activity: Active
ECa-109 cell line [9]
  Activity: 55.65%
Tubulin (Homo sapiens) [10]
  inhibition: Active
Tubulin
  IC50: 446 nM
ECa-109 cell line [11]
  Activity: inactive
ECa-109 cell line [12]
  Activity: Active
ECa-109 cell line [13]
  Activity: Active
ECa-109 cell line [14]
  Activity: inactive
ECa-109 cell line [15]
  Activity: inactive
KYSE-30 [16]
  Activity: Tde
KYSE-30 [17]
  Activity: Active
ECa-109 cell line [18]
  Activity: Active
KYSE-30 [19]
  Activity: inactive
ECa-109 cell line [20]
  Activity: Dose-Dependent Effect
ECa-109 cell line [21]
  Activity: Active
ECa-109 cell line [22]
  Activity: inactive
ECa-109 [23]
  Activity: Dose-Dependent Effect
KYSE-30 [24]
  Activity: inactive
ECa-109 cell line [25]
  Activity: Active
ECa-109 cell line [26]
  Activity: Dose-Dependent Effect
ECa-109 cell line [27]
  Activity: >90%
Tubulin (Homo sapiens) [28]
  inhibition: Active
Cell membrane [29]
  Activity: Active
KYSE-30 [30]
  Activity: Active
ECa-109 cell line [31]
  Activity: Tde
ECa-109 cell line [32]
  Activity: Active
Cell membrane [33]
  Activity: Active
ECa-109 cell line [34]
  Activity: Active
KYSE-30 [35]
  Activity: Active
ECa-109 cell line [36]
  Activity: Active
